The source made the active and inactive calls. The rule behind the calls is not given here. Where a SMILES comes first, the peptide text is derived from it. Side-chain parts run from the residue outwards. The star is where a group is joined. Adamantane1carbonyl = O=C(C12CC3CC(CC(C3)C1)C2)*
Legend:
Mus musculus [1] = experiment: Antinociceptive activity in Kunming mouse model of thermal-induced nociception assessed as increase in latency to tail withdrawal at 10 nmol, icv measured up to 60 mins by tail flick test; format: functional, organism-based
Mu-type opioid receptor = Mu-type opioid receptor (Homo sapiens, UniProt P35372); experiment: Agonist activity at mu-opioid receptor (unknown origin) expressed in HEK293A cells assessed as inhibition of forskolin-induced cAMP accumulation measured after 30 mins; format: functional, cell-based
Chain of Mu-type opioid receptor (P35372 whole entry): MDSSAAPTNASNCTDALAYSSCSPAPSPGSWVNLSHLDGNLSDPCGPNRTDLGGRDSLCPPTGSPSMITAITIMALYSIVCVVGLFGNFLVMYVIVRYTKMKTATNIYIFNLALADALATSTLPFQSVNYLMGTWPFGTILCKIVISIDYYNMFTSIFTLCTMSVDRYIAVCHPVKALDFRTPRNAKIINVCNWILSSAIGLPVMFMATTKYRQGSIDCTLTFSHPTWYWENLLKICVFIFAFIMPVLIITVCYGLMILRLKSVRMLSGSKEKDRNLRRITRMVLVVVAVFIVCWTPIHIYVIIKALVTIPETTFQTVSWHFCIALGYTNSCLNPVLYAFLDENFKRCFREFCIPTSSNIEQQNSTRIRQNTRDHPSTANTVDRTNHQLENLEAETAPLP

[2] = molecular target: Delta-type opioid receptor (Homo sapiens, UniProt P41143); experiment: Agonist activity at delta-opioid receptor (unknown origin) expressed in HEK293A cells assessed as inhibition of forskolin-induced cAMP accumulation measured after 30 mins; format: functional, cell-based
Chain of Delta-type opioid receptor (P41143 whole entry): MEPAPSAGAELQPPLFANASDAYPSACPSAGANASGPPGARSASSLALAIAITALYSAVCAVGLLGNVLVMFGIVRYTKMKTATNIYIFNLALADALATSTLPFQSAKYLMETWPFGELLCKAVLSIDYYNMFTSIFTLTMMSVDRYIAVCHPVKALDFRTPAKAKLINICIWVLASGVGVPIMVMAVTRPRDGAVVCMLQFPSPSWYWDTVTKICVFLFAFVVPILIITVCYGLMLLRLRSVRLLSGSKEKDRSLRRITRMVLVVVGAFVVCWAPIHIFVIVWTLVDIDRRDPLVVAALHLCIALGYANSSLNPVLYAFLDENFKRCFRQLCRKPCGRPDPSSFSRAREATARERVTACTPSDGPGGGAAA

[3] = molecular target: T1, Neuropeptide FF receptor 1 (Homo sapiens, UniProt Q9GZQ6); experiment: Antagonist activity at NPFF1 receptor (unknown origin) expressed in HEK293A cells assessed as reversal of […] induced inhibition of forskolin-stimulated cAMP accumulation measured after 30 mins; format: functional, cell-based
T1 sequence (Q9GZQ6 whole entry): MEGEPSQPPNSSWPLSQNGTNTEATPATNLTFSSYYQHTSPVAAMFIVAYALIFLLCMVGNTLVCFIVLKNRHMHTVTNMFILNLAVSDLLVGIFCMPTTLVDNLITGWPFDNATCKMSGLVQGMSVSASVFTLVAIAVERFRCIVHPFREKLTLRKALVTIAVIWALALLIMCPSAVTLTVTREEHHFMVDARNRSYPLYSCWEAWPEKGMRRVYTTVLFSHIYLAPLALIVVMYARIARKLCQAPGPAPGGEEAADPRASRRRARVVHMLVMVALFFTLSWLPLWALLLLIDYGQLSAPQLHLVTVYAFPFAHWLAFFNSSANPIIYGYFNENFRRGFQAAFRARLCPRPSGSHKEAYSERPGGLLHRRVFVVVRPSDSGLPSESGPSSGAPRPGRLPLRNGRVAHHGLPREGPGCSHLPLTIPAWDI

[4] = molecular target: T2, Neuropeptide FF receptor 2 (Homo sapiens, UniProt Q9Y5X5); experiment: Antagonist activity at NPFF2 receptor (unknown origin) expressed in HEK293A cells assessed as reversal of […] induced inhibition of forskolin-stimulated cAMP accumulation measured after 30 mins; format: functional, cell-based
T2 sequence (Q9Y5X5 whole entry): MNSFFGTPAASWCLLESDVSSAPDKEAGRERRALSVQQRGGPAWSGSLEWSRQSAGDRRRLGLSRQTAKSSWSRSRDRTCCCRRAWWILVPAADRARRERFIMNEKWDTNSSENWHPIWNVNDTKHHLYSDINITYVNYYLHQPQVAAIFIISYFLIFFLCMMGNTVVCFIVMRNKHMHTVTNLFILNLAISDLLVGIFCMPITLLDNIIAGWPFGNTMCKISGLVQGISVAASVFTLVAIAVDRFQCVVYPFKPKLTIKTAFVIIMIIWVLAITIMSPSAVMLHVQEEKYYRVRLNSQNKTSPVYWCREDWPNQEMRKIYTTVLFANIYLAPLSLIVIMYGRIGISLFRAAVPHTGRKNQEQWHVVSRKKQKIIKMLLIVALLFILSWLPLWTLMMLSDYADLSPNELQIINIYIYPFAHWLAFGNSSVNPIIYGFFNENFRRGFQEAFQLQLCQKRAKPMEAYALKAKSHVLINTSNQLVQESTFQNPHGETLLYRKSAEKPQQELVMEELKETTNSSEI

[5] = molecular target: T2, Neuropeptide FF receptor 2; experiment: Agonist activity at NPFF2 receptor (unknown origin) expressed in HEK293A cells assessed as inhibition of forskolin-stimulated cAMP accumulation measured after 30 mins; format: functional, cell-based
[6] = molecular target: T2, Neuropeptide FF receptor 2; experiment: Agonist activity at NPFF2 receptor (unknown origin) expressed in HEK293A cells assessed as inhibition of forskolin-stimulated cAMP accumulation measured after 30 mins relative to NPFF; format: functional, cell-based
[7] = molecular target: Neuropeptide FF receptor 2 (Mus musculus) (UniProt Q924H0); experiment: Antagonist activity at NPFF2 receptor in mouse Neuro2a cells assessed as inhibition of NPFF-induced neurite outgrowth by measuring neurite outgrowth at 10 uM after 18 hrs by phase contrast microscopic analysis (reference value: 24.05 +/- 1.19%); format: cell-based; design: scale not given: the % may be the effect or the level left
Chain of Neuropeptide FF receptor 2 (Mus musculus) (Q924H0 whole entry): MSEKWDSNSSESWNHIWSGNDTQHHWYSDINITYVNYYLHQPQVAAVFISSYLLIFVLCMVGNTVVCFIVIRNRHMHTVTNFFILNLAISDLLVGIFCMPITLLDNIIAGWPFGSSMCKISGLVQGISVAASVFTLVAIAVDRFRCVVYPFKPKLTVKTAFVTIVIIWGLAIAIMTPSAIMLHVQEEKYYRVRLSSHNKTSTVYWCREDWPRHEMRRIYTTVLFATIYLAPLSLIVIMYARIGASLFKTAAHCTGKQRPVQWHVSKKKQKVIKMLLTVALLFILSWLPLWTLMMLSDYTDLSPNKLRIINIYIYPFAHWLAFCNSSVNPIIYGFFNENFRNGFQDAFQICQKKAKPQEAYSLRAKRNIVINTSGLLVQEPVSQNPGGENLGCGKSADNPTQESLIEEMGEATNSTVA

N2a = experiment: Effect on neurite outgrowth in mouse Neuro2a cells at 10 uM after 18 hrs by phase contrast microscopic analysis relative to control; format: cell-based
Mus musculus [8] = experiment: Antinociceptive activity in icv dosed Kunming mouse model of thermal-induced nociception assessed as increase in latency to tail withdrawal by tail flick test; format: functional
Mus musculus [9] = experiment: Antinociceptive activity in Kunming mouse model of thermal-induced nociception assessed as increase in latency to tail withdrawal at 20 nmol, icv measured up to 60 mins in presence of opioid receptor antagonist naloxone by tail flick test; format: functional, organism-based
Mus musculus [10] = experiment: Antinociceptive activity in Kunming mouse model of thermal-induced nociception assessed as increase in latency to tail withdrawal at 20 nmol, icv measured up to 60 mins in presence of mu-opioid receptor antagonist beta-FNA by tail flick test; format: functional, organism-based
Mus musculus [11] = experiment: Antinociceptive activity in Kunming mouse model of thermal-induced nociception assessed as increase in latency to tail withdrawal at 20 nmol, icv measured up to 60 mins in presence of kappa-opioid receptor antagonist nor-BNI by tail flick test; format: functional, organism-based
Mus musculus [12] = experiment: Antinociceptive activity in Kunming mouse model of thermal-induced nociception assessed as increase in latency to tail withdrawal at 20 nmol, icv measured up to 60 mins in presence of delta-opioid receptor antagonist naltrindole by tail flick test; format: functional, organism-based
Mus musculus [13] = experiment: Antinociceptive activity in Kunming mouse model of thermal-induced nociception assessed as increase in latency to tail withdrawal at 10 nmol, icv measured up to 60 mins in presence of NPFF receptor antagonist RF9 by tail flick test; format: functional, organism-based
Mus musculus [14] = experiment: Antiallodynic activity in carrageenan-induced Kunming mouse model of mechanical hyperalgesia administered as intrathecal injection after 10 to 90 mins by Von Frey filament assay; format: functional
Mus musculus [15] = experiment: Antiallodynic activity in carrageenan-induced Kunming mouse model of mechanical hyperalgesia administered as intrathecal injection after 10 to 90 mins in presence of NPFF receptor antagonist RF9 by Von Frey filament assay; format: functional, organism-based
Mus musculus [16] = experiment: Antiallodynic activity in carrageenan-induced Kunming mouse model of mechanical hyperalgesia administered as intrathecal injection after 10 to 90 mins in presence of opioid receptor antagonist naloxone by Von Frey filament assay; format: functional, organism-based
[17] = Toxicity in Kunming mouse assessed as impairment of motor coordination at 20 nmol, icv measured after 10 to 40 mins by rotarod test; conditions: in vivo, icv_or_intrathecal
[18] = Toxicity in Kunming mouse assessed as impairment of motor coordination at 20 nmol, it measured after 10 to 40 mins by rotarod test; conditions: in vivo, icv_or_intrathecal
Mus musculus [19] = experiment: Antinociceptive activity in Kunming mouse model of thermal-induced nociception assessed as increase in latency to tail withdrawal at 10 to 20 nmol, icv administered once daily for 5 to 8 days measured daily at 30 mins post dose by tail flick test; format: functional, organism-based
Mus musculus [20] = experiment: Antinociceptive activity in Kunming mouse model of thermal-induced nociception assessed as increase in latency to tail withdrawal at 2 to 4 nmol, icv administered once daily for 8 days measured daily at 30 mins post dose in presence of NPFF receptor antagonist RF9 by tail flick test; format: functional, organism-based
[21] = Toxicity in Kunming mouse assessed as inhibition of gastrointestinal transit by measuring reduction in distance traveled by charcoal at 10 mg/kg, ip dosed 15 mins prior charcoal meal measured after 30 mins; format: organism-based; conditions: in vivo, 0.5 h
[22] = Toxicity in Kunming mouse assessed as inhibition of gastrointestinal transit by measuring reduction in distance traveled by charcoal at 5 to 20 nmol, icv dosed 15 mins prior charcoal meal measured after 30 mins; format: organism-based; conditions: in vivo, icv_or_intrathecal, 0.5 h
[23] = molecular target: T1, Neuropeptide FF receptor 1; experiment: Agonist activity at NPFF1 receptor (unknown origin) expressed in HEK293A cells assessed as inhibition of forskolin-stimulated cAMP accumulation measured after 30 mins; format: functional, cell-based
[24] = molecular target: Kappa-type opioid receptor (Homo sapiens) (UniProt P41145)
Chain of Kappa-type opioid receptor (Homo sapiens) (P41145 whole entry): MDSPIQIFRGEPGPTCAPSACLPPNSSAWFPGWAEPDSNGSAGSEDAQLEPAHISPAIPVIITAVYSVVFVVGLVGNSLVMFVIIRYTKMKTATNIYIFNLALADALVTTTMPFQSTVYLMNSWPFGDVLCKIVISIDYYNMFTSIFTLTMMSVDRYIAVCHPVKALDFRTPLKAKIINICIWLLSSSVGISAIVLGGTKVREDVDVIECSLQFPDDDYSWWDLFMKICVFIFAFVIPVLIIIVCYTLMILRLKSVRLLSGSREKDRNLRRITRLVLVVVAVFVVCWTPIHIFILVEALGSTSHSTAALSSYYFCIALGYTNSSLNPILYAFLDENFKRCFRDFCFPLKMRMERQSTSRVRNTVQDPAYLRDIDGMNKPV
Description: Agonist activity at kappa-opioid receptor (unknown origin) expressed in HEK293A cells assessed as inhibition of forskolin-induced cAMP accumulation measured after 30 mins

Mus musculus [25] = experiment: Antinociceptive activity in Kunming mouse model of thermal-induced nociception assessed as increase in latency to tail withdrawal at 2 to 4 nmol, icv administered once daily for 5 days measured daily at 30 mins post dose by tail flick test; format: functional, organism-based
Mus musculus [26] = experiment: Antinociceptive activity in Kunming mouse model of thermal-induced nociception assessed as increase in latency to tail withdrawal at 2 nmol, icv administered once daily for 8 days measured daily at 30 mins post dose by tail flick test relative to control; format: functional
Mus musculus [27] = experiment: Antinociceptive activity in Kunming mouse model of thermal-induced nociception assessed as increase in latency to tail withdrawal at 4 nmol, icv administered once daily for 8 days measured daily at 30 mins post dose by tail flick test relative to control; format: functional
Mus musculus [28] = experiment: Antinociceptive activity in Kunming mouse model of thermal-induced nociception assessed as increase in latency to tail withdrawal at 2 to 4 nmol, icv administered once daily for 8 days measured on days 6 to 8 at 30 mins post dose in presence of NPFF receptor antagonist RF9 by tail flick test; format: functional, organism-based
[29] = Toxicity in Kunming mouse assessed as inhibition of gastrointestinal transit by measuring reduction in distance traveled by charcoal at 10 to 30 mg/kg, ip dosed 15 mins prior charcoal meal measured after 30 mins; format: organism-based; conditions: in vivo, 0.5 h
Mus musculus [30] = experiment: Antinociceptive activity in icv dosed Kunming mouse model of thermal-induced nociception assessed as increase in latency to tail withdrawal up to 60 mins radiant heat tail flick method; format: functional
Mus musculus [31] = experiment: Antinociceptive activity in Kunming mouse model of thermal-induced nociception assessed as increase in latency to tail withdrawal at 5 nmol, icv measured up to 60 mins by tail flick test; format: functional, organism-based

## COC(=O)/C=C/C(=O)N[C@@H]1CC[C@@]2(O)[C@H]3Cc4ccc(O)c5c4[C@@]2(CCN3CC2CC2)[C@H]1O5
Mus musculus [1]
  Activity: inactive

## N=C(N)NCCC[C@H](NC(=O)C12CC3CC(CC(C3)C1)C2)C(=O)N[C@@H](Cc1ccccc1)C(=O)N[C@@H](CCCCNC(=O)[C@H](Cc1ccccc1)NC(=O)[C@H](Cc1ccccc1)NC(=O)[C@@H]1CCCN1C(=O)[C@@H](N)Cc1ccc(O)cc1)C(N)=O
Mu-type opioid receptor
  EC50: 1.9 µM
  Emax: 62%
[2]
  Emax: inactive
  pEC50: inactive
[3]
  IC50: 0.19 µM
  inhibition: Dose-dependent effect
[4]
  IC50: 0.19 µM
[5]
  EC50: 0.25 µM
  Emax: 31.3%
  inhibition: Dose-dependent effect
[6]
  Emax: 60%
[7]
  Activity: 14.1%
N2a
  Activity: 12.71%
Mus musculus [8]
  ED50: 4.8 nmol
Mus musculus [9]
  Activity: inactive
Mus musculus [10]
  Activity: inactive
Mus musculus [11]
  Activity: Active
Mus musculus [12]
  Activity: Active
Mus musculus [13]
  Activity: Active
Mus musculus [14]
  Activity: Dose-dependent effect
  ED50: 8.16 nmol
Mus musculus [15]
  Activity: inactive
Mus musculus [16]
  Activity: inactive
[17]
  Activity: Non-Toxic
[18]
  Activity: Non-Toxic
Mus musculus [19]
  Activity: Active
Mus musculus [20]
  Activity: Active
[21]
  Activity: Non-Toxic
[22]
  Activity: Non-Toxic
[23]
  Emax: inactive
  pEC50: inactive
[24]
  pEC50: inactive

## Oc1ccc2c3c1O[C@H]1c4[nH]c5ccccc5c4C[C@@]4(O)[C@@H](C2)N(CC2CC2)CC[C@]314
Mus musculus [1]
  Activity: inactive

## CN1CC[C@]23c4c5ccc(O)c4O[C@H]2[C@@H](O)C=C[C@H]3[C@H]1C5 [MORPHINE]
Mus musculus [14]
  Activity: Dose-dependent effect
  ED50: 0.44 nmol
Mus musculus [15]
  Activity: Active
Mus musculus [16]
  Activity: inactive
Mus musculus [25]
  Activity: inactive
Mus musculus [26]
  MPE: 6.67%
Mus musculus [27]
  MPE: 9.88%
Mus musculus [28]
  Activity: Active
[21]
  Activity: Toxic

## CC(C)C[C@H](NC(=O)[C@H](Cc1ccccc1)NC(=O)[C@H](C)N(C)C(=O)[C@@H]1CCCN1C(=O)[C@H](N)CC(N)=O)C(=O)N[C@@H](Cc1ccccc1)C(=O)N[C@@H](CCC(N)=O)C(=O)N1CCC[C@H]1C(=O)N[C@@H](CCC(N)=O)C(=O)N[C@@H](CCCNC(=N)N)C(=O)N[C@@H](Cc1ccccc1)C(N)=O
Mus musculus [14]
  Activity: Dose-dependent effect
  ED50: 26.2 nmol
Mus musculus [15]
  Activity: inactive
Mus musculus [16]
  Activity: inactive

## NC(=O)[C@H](Cc1ccccc1)NC(=O)[C@H](Cc1ccccc1)NC(=O)[C@@H]1CCCN1C(=O)[C@@H](N)Cc1ccc(O)cc1 [ENDOMORPHIN 2]
Mu-type opioid receptor
  Emax: 76.8%
N2a
  Activity: 16.49%
[29]
  Activity: Non-Toxic
Mus musculus [30]
  ED50: 6.88 nmol

## N=C(N)NCCC[C@H](NC(=O)C12CC3CC(CC(C3)C1)C2)C(=O)N[C@@H](Cc1ccccc1)C(N)=O
[3]
  inhibition: Dose-dependent effect
[7]
  Activity: 12.9%
Mus musculus [1]
  Activity: inactive

## C=CCN1CC[C@]23c4c5ccc(O)c4O[C@H]2C(=O)CC[C@@]3(O)[C@H]1C5
Mus musculus [31]
  Activity: inactive

## Oc1ccc2c3c1O[C@H]1c4[nH]c5c(c4C[C@@]4(O)[C@@H](C2)N(CC2CC2)CC[C@]314)C[C@@]1(O)[C@H]2Cc3ccc(O)c4c3[C@@]1(CCN2CC1CC1)[C@H]5O4
Mus musculus [1]
  Activity: inactive

## N=C(N)NCCC[C@H](NC(=O)C12CC3CC(CC(C3)C1)C2)C(=O)N[C@@H](Cc1ccccc1)C(=O)NCCCC[C@H](NC(=O)[C@H](Cc1ccccc1)NC(=O)[C@H](Cc1ccccc1)NC(=O)[C@@H]1CCCN1C(=O)[C@@H](N)Cc1ccc(O)cc1)C(N)=O (H-YPFFK([Phe-Arg-Adamantane1carbonyl])-NH2)
Mu-type opioid receptor
  EC50: 1.77 µM
  Emax: 54.3%
[2]
  Emax: 55.9%
[2]; read-out: EC50
  EC50: 2.24 µM
[2]; read-out: pEC50 (converted)
  EC50: 2 µM
[3]
  IC50: 0.52 µM
  inhibition: Dose-dependent effect
[4]
  IC50: 0.52 µM
[5]
  EC50: 0.17 µM
  Emax: 26.6%
  inhibition: Dose-dependent effect
[6]
  Emax: 50.9%
[7]
  Activity: 10.3%
N2a
  Activity: 11.88%
Mus musculus [8]
  ED50: 6.27 nmol
Mus musculus [9]
  Activity: inactive
Mus musculus [13]
  Activity: Active
Mus musculus [14]
  Activity: Dose-dependent effect
  ED50: 9.25 nmol
Mus musculus [15]
  Activity: inactive
Mus musculus [16]
  Activity: inactive
[17]
  Activity: Non-Toxic
[18]
  Activity: Non-Toxic
Mus musculus [19]
  Activity: Active
Mus musculus [20]
  Activity: Active
[21]
  Activity: Non-Toxic
[22]
  Activity: Non-Toxic
[23]
  Emax: inactive
  pEC50: inactive
[24]
  pEC50: inactive

## NC(=O)[C@H](Cc1ccccc1)NC(=O)[C@H](CCCN=C(N)N)NC(=O)C12CC3CC(CC(C3)C1)C2
[3]
  IC50: 0.41 µM
[4]
  IC50: 0.41 µM
N2a
  Activity: 12.41%
